# Experimental data reported in publication PMC3108181 (Biochimica et biophysica acta, 2011).
# “And” between values parts separate entries of the source, which are not always exact repeats. Equal values may be shown once. “Also recorded” adds a separate entry of the source. Read-outs that look alike come from different tables or passages of the source.
# Legend:
# [1] = system: Complex IV: ferrocytochrome C oxidase:oxygen oxidoreductase; test: Complex IV activity in lysed rat brain mitochondria; format: biochemical; conditions: for Prevention of the complex IV inhibition observed with DAH: (2U) SOD plus (2U) Cat, 10 uM pargyline and 10 uM clorgyline, DTT 50 uM, data not shown; for Effect on complex IV activity: lysed rat brain mitochondria, 15 min pre-incubation at room temperature
# [2] = system: Complex III: ubiquinol: ferricytochrome C oxidoreductase; test: Complex III activity in lysed rat brain mitochondria; format: biochemical; conditions: for Inhibition of complex III activity: myxothiazol (60uM) and antimycin A (0.002mg/ml) together, parallel control
# [3] = system: Complex I: NADH:ubiquinone oxidoreductase; test: Complex I activity in lysed rat brain mitochondria; format: biochemical; conditions: for Effect on complex I activity: lysed rat brain mitochondria, 30 min pre-incubation (same with no pre-incubation)
# [4] = biological target: Complex II: succinate:ubiquinone oxidoreductase (Rattus norvegicus, UniProt P21913+Q641Z9+Q6PCT8+Q920L2); test: Complex II activity; format: biochemical; conditions: for Effect on complex II activity: lysed rat brain mitochondria, 15 min pre-incubation at room temperature, malonate sensitive activity
# [5] = system: Complex I/III: NADH:cytochrome C-oxidoreductase; test: Complex I/III activity in lysed rat brain mitochondria; format: biochemical
# [6] = system: Complex II/III: succinate:cytochrome C-oxidoreductase; test: Complex II/III activity in lysed rat brain mitochondria; format: biochemical
# complex I = conditions: cited from earlier work
# complex IV = conditions: cited from earlier work; for Inhibition of complex IV: 400 uM DA, 2 hrs of incubation
# [7] = system: NADH-Oxidase (complexes I, III and IV); test: NADH-oxidase activity in lysed rat brain mitochondria; format: biochemical
# [8] = read-out: Inhibition of complex II activity
# Chain of Complex II: succinate:ubiquinone oxidoreductase (Q920L2 35-656): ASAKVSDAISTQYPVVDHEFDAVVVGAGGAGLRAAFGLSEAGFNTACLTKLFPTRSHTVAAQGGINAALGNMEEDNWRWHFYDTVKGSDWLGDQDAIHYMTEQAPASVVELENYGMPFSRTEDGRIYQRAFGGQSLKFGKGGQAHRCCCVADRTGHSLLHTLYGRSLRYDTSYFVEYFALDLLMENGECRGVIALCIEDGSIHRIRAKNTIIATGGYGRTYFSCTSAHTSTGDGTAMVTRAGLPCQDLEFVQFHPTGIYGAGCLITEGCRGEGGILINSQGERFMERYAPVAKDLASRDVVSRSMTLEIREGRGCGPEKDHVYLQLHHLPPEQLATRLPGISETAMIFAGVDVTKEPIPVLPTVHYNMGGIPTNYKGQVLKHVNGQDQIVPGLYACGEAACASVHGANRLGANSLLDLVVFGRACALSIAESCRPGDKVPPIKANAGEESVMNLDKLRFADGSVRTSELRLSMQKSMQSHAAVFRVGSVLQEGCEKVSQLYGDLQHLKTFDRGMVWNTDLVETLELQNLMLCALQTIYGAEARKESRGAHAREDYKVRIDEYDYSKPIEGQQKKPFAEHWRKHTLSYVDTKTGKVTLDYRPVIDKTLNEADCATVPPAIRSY
# Chain of Complex II: succinate:ubiquinone oxidoreductase (P21913 31-282): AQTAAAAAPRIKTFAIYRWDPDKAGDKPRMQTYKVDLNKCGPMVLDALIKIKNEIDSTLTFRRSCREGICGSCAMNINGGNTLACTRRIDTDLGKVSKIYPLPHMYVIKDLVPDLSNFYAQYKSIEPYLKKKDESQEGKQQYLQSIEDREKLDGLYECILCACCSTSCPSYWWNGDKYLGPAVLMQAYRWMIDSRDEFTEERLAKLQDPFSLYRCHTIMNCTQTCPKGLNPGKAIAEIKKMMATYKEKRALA
# Chain of Complex II: succinate:ubiquinone oxidoreductase (Q641Z9 1-169): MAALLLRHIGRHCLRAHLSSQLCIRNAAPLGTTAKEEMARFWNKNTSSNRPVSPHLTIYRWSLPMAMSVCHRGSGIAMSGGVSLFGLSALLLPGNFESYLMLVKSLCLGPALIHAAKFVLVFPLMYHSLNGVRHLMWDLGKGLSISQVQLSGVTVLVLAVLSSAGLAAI
# Chain of Complex II: succinate:ubiquinone oxidoreductase (Q6PCT8 57-159): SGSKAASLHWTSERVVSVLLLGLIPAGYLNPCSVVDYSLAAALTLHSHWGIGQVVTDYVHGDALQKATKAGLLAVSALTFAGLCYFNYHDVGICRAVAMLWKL
molecule,measurement,setting,value
"C#CCN(C)Cc1ccccc1 [pargyline, reference compound]",Prevention of the complex IV inhibition observed with DAH,[1]; 1 mM DAH,not prevented
CCCCCC[C@H]1C(=O)O[C@H](C)[C@H](NC(=O)c2cccc(NC=O)c2O)C(=O)O[C@@H](C)[C@@H]1OC(=O)CC(C)C [antimycin A],Inhibition of complex III activity,[2],≥ 95%
"NCCc1ccc(O)c(O)c1 [DAH, dopamine]",Effect on complex I activity,[3],not affected; also recorded: No effect at 1mM
same,Effect on complex II activity,[4],Significantly inhibited at 500 uM and 1mM
same,inhibition at 500 µM,[4]; [8],32.7 ± 2%
same,inhibition at 1000 µM,[4]; [8],41.9 ± 5.5%
same,"Complex IV activity, % of control","[1]; 1 mM DAH, concluded to be an artifact (back reaction with oxidized cytochrome C)",61 % of control
same,Effect on complex IV activity,[1],Inhibited at 1mM due to artifactual competing back reaction between oxidized cytochrome C and reduced dopamine
same,"Complex I/III activity, mean % of control","[5]; 200 uM DA plus tyrosinase (25U) alone (DAQ), ± sem",7 % of control
same,Effect on complex II/III activity,[6],inhibited complex II/III activity to a similar extent as was observed with complex II alone
same,IC50,complex I; read-out: IC50 for inhibition of complex I,8 to 12 µM and 8.12 µM
same,Inhibition of complex IV,complex IV; ref 29,62.8%
same,Inhibition of complex IV,complex IV; ref 30,57%
same,Effect on complex IV,"complex IV; DA up to 1mM, 1 min incubation",no inhibition
"O=C(O)Cc1ccc(O)c(O)c1 [DOPAC-H, 3,4-dihydroxyphenylacetic acid]",Effect on complex I activity,[3],not affected; also recorded: No effect at 1mM
same,Effect on complex II activity,[4],not significantly affected; also recorded: not attenuated; also recorded: No effect at 1mM
same,Effect on complex IV activity,[1],not affected; also recorded: No effect at 1mM
same,Effect on complex II/III activity,"[6]; lysed rat brain mitochondria, 15 min exposure at room temperature, inhibitor corrected rates",did not significantly inhibit
same,Effect on complex IV activity,"complex IV; 400 uM DOPAC, rat brain mitochondria, 2 hr pre-incubation",only marginal effects
CO/C(=C/C(N)=O)[C@H](C)[C@H](/C=C/c1csc(-c2csc([C@@H](C)/C=C/C=C/C(C)C)n2)n1)OC [myxothiazol],Inhibition of complex III activity,[2],≥ 95%
"CC(=O)N(O)CCCCCNC(=O)CCC(=O)N(O)CCCCCNC(=O)CCC(=O)N(O)CCCCCN [desferoxamine, reference compound]",Attenuation of DA mediated inhibition of complex I activity,complex I,partially attenuated
"O=C(O)CC(=O)O [malonate, reference compound]",Inhibition of complex II activity,"[4]; malonate 10mM, parallel control",90–95%
"C=C(C)[C@H]1Cc2c(ccc3c2O[C@@H]2COc4cc(OC)c(OC)cc4[C@@H]2C3=O)O1 [rotenone, reference compound]",Inhibition of NADH-oxidase activity,[7],≥ 90%
same,Inhibition of complex I/III activity,[5],≥ 95%
"O[C@@H](CS)[C@@H](O)CS [DTT, dithioreitol, reference compound]",Prevention of the complex IV inhibition observed with DAH,[1]; 1 mM DAH,not prevented
"C#CCN(C)CCCOc1ccc(Cl)cc1Cl [clorgyline, reference compound]",Prevention of the complex IV inhibition observed with DAH,[1]; 1 mM DAH,not prevented
catalase,Prevention of DAQ mediated inhibition of complex I,[3]; 50 uM DAQ plus SOD [2U] and catalase [1U] together,did not prevent
same,Prevention of the complex IV inhibition observed with DAH,[1]; 1 mM DAH,not prevented
O=C(O)CC1=CC(=O)C(=O)C=C1 [DOPAC-Q],Effect on complex II activity,[4],did not attenuate; also recorded: No effect up to 400 uM
same,IC50,"[2]; read-out: IC50 for inhibition of complex III activity, 15 min pre-incubation at room temperature, mean ± SEM",110 µM
same,Effect on complex IV activity,[1],did not inhibit; also recorded: No effect up to 400 uM
